Results reported in patent publication US12077503B2, “Substituted cyclic amides and their use as herbicides” (FMC CORPORATION, priority 2015, dated 2024).

Experiments:
Assay type in all cases: in vivo
[1] = tested on: Kochia (Kochia scoparia); assay: Test A preemergence; conditions: Bassia scoparia, pre-emergence, 240 h, Preemergence
In short: (§1)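 Greenhouse, ~10 d after spray; visual injury vs untreated controls, 0 = no effect, 100 = complete control. Preemergence: directed soil spray over planted seeds. Postemergence: plants 2–10 cm, 1–2 leaf stage. Loam/sand blend. Compound in non-phytotoxic solvent with surfactant.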

[2] = tested on: barnyardgrass (Echinochloa crus-galli); assay: Test A preemergence; conditions: Echinochloa crus-galli, pre-emergence, 240 h, Preemergence
In short: as §1

[3] = tested on: pigweed (Amaranthus retroflexus); assay: Test A preemergence; conditions: Amaranthus retroflexus, pre-emergence, 240 h, Preemergence
[4] = tested on: ragweed (common ragweed, Ambrosia elatior); assay: Test A preemergence; conditions: Ambrosia artemisiifolia, pre-emergence, 240 h, Preemergence
In short: as §1

[5] = tested on: ryegrass, Italian (Italian ryegrass, Lolium multiflorum); assay: Test A preemergence; conditions: Lolium multiflorum, pre-emergence, 240 h, Preemergence
In short: as §1

[6] = tested on: Galium (catchweed bedstraw, Galium aparine); assay: Test A postemergence; conditions: Galium, post-emergence, 240 h, Postemergence, read-out: Galium plant response rating (0 to 100 scale)
In short: as §1

[7] = tested on: Kochia (Kochia scoparia); assay: Test A postemergence; conditions: Bassia scoparia, post-emergence, 240 h, Postemergence, read-out: Kochia plant response rating (0 to 100 scale)
In short: as §1

[8] = tested on: barnyardgrass (Echinochloa crus-galli); assay: Test A postemergence; conditions: Echinochloa crus-galli, post-emergence, 240 h, Postemergence
In short: as §1

[9] = tested on: blackgrass (Alopecurus myosuroides); assay: Test A postemergence; conditions: Alopecurus myosuroides, post-emergence, 240 h, Postemergence, read-out: Blackgrass plant response rating (0 to 100 scale)
In short: as §1

[10] = tested on: corn (Zea mays); assay: Test A postemergence; conditions: Zea mays, post-emergence, 240 h, Postemergence, read-out: Corn plant response rating (0 to 100 scale)
In short: as §1

[11] = tested on: giant foxtail (Setaria faberii); assay: Test A postemergence; conditions: Setaria faberi, post-emergence, 240 h, Postemergence, read-out: Foxtail, Giant plant response rating (0 to 100 scale)
In short: as §1

[12] = tested on: pigweed (Amaranthus retroflexus); assay: Test A postemergence; conditions: Amaranthus retroflexus, post-emergence, 240 h, Postemergence, read-out: Pigweed plant response rating (0 to 100 scale)
In short: as §1

[13] = tested on: ragweed (common ragweed, Ambrosia elatior); assay: Test A postemergence; conditions: Ambrosia artemisiifolia, post-emergence, 240 h, Postemergence, read-out: Ragweed plant response rating (0 to 100 scale)
In short: as §1

[14] = tested on: ryegrass, Italian (Italian ryegrass, Lolium multiflorum); assay: Test A postemergence; conditions: Lolium multiflorum, post-emergence, 240 h, Postemergence, read-out: Ryegrass, Italian plant response rating (0 to 100 scale)
In short: as §1

[15] = tested on: wheat (Triticum aestivum); assay: Test A postemergence; conditions: Triticum aestivum, post-emergence, 240 h, Postemergence, read-out: Wheat plant response rating (0 to 100 scale)
In short: as §1

[16] = 125 g ai/ha, visual rating about 10 d after treatment
[17] = 31 g ai/ha, 0 is no effect, 100 is complete control

**Q.** How did the pest or weed control at 31 g/ha ([1]; 31 g ai/ha, 0 to 100 scale where 0 is no effect and 100 is complete control, read-out: Kochia plant response rating) turn out when CN1C[C@H](c2csc3c2CCC(F)(F)C3)[C@@H](C(=O)Nc2ccccc2S(C)(=O)=O)C1=O (racemic) [Compound 1367] was run?
**A.** 0%

**Q.** And the pest or weed control at 125 g/ha ([1]; 125 g ai/ha, 0 to 100 scale (0 no effect, 100 complete control), read-out: Plant response rating, Kochia)?
**A.** 0%

**Q.** And the pest or weed control at 31 g/ha ([2]; 31 g ai/ha, 0 to 100 scale where 0 is no effect and 100 is complete control, read-out: Barnyardgrass plant response rating)?
**A.** 0%

**Q.** What about the pest or weed control at 125 g/ha ([2]; 125 g ai/ha, 0 to 100 scale (0 no effect, 100 complete control), read-out: Plant response rating, Barnyardgrass) of the same compound?
**A.** 80%

**Q.** What about the pest or weed control at 31 g/ha ([3]; 31 g ai/ha, 0 to 100 scale where 0 is no effect and 100 is complete control, read-out: Pigweed plant response rating) of the same compound?
**A.** 0%

**Q.** What about the pest or weed control at 125 g/ha ([3]; 125 g ai/ha, 0 to 100 scale (0 no effect, 100 complete control), read-out: Plant response rating, Pigweed) of the same compound?
**A.** 0%

**Q.** What about the pest or weed control at 31 g/ha ([4]; 31 g ai/ha, 0 to 100 scale where 0 is no effect and 100 is complete control, read-out: Ragweed plant response rating) of the same compound?
**A.** 0%

**Q.** What about the pest or weed control at 125 g/ha ([4]; 125 g ai/ha, 0 to 100 scale (0 no effect, 100 complete control), read-out: Plant response rating, Ragweed) of the same compound?
**A.** 0%

**Q.** And the pest or weed control at 31 g/ha ([5]; 31 g ai/ha, 0 to 100 scale where 0 is no effect and 100 is complete control, read-out: Ryegrass, Italian plant response rating)?
**A.** 0%

**Q.** And the pest or weed control at 125 g/ha ([5]; 125 g ai/ha, 0 to 100 scale (0 no effect, 100 complete control), read-out: Plant response rating, Ryegrass, Italian)?
**A.** 0%

**Q.** What about the pest or weed control at 125 g/ha [6, 16] of the same compound?
**A.** 0%

**Q.** What about the pest or weed control at 31 g/ha [6, 17] of the same compound?
**A.** 0%

**Q.** What about the pest or weed control at 125 g/ha [7, 16] of the same compound?
**A.** 0%

**Q.** What about the pest or weed control at 31 g/ha [7, 17] of the same compound?
**A.** 0%

**Q.** And the pest or weed control at 125 g/ha ([8]; 125 g ai/ha, visual rating about 10 d after treatment, read-out: Barnyardgrass plant response rating (0 to 100 scale, 0 no effect, 100 complete control))?
**A.** 30%

**Q.** And the pest or weed control at 31 g/ha ([8]; 31 g ai/ha, 0 is no effect, 100 is complete control, read-out: Barnyardgrass plant response rating (0 to 100 scale))?
**A.** 0%

**Q.** What about the pest or weed control at 125 g/ha [9, 16] of the same compound?
**A.** 0%

**Q.** And the pest or weed control at 31 g/ha [9, 17]?
**A.** 0%

**Q.** And the plant injury at 125 g/ha [10, 16]?
**A.** 0%

**Q.** What about the plant injury at 31 g/ha [10, 17] of the same compound?
**A.** 0%

**Q.** And the pest or weed control at 125 g/ha [11, 16]?
**A.** 30%

**Q.** And the pest or weed control at 31 g/ha [11, 17]?
**A.** 0%

**Q.** And the pest or weed control at 125 g/ha [12, 16]?
**A.** 20%

**Q.** What about the pest or weed control at 31 g/ha [12, 17] of the same compound?
**A.** 0%

**Q.** What about the pest or weed control at 125 g/ha [13, 16] of the same compound?
**A.** 0%

**Q.** What about the pest or weed control at 31 g/ha [13, 17] of the same compound?
**A.** 0%

**Q.** And the pest or weed control at 125 g/ha [14, 16]?
**A.** 0%

**Q.** What about the pest or weed control at 31 g/ha [14, 17] of the same compound?
**A.** 0%

**Q.** What about the plant injury at 125 g/ha [15, 16] of the same compound?
**A.** 0%

**Q.** And the plant injury at 31 g/ha [15, 17]?
**A.** 0%
